Reference: publication PMC9068772, “Discovery of first-in-class nanomolar inhibitors of heptosyltransferase I reveals a new aminoglycoside target and potential alternative mechanism of action” (Scientific Reports, 2022)

Target: T1, HepI K64A (Escherichia coli, UniProt P24173, K64A)
T1 construct: made in house; host or cells: E. coli One Shot BL-21-AI (stated for HepI in general)
Assay: HepI inhibition, ADP/NADH coupled assay (K64A mutant)
Assay type: biochemical, E. coli K12
Description: As previously reported[11],[14],[15], an ADP/NADH coupled assay was used to monitor HepI activity by monitoring the absorbance change at 340 nm at 37 °C on a Cary Bio 100 UV–Vis Spectrometer. Under normal conditions, the assay buffer was composed of 50 mM HEPES, 50 mM KCl, 10 mM MgCl2, pH 7.5. The coupled enzyme reaction additionally contained 100 μM phosphoenolpyruvate, 100 μM NADH, 100 μM dithiothreitol (DTT) and 0.05 U/μL of both pyruvate kinase and lactate dehydrogenase. 100 μM ADPH was used when ODLA concentration was varied and 100 μM ODLA was used when ADPH was varied. Once a stable baseline was established (~ 5 min), the reaction was initiated by addition of HepI to a final concentration of 50 nM or 100 nM (for high and lower substrate concentrations respectively) and all reported reaction rates are after background subtraction. When running 12 samples at once, plastic cuvette stirs and a repeat pipettor was used to inject 200 μL enzyme. Inhibition of HepI was monitored using the same ADP/NADH coupled assay, all conditions of the assay were the same as previously described unless otherwise stated. Ki values for each of the compounds were determined by varying compound final concentration from 100 μm to 10 nm, and a final concentration of 10 μM ODLA. Competition assays against ADPH were done with excess ODLA (100 μM) and varying ADPH from 2–0.25 μM. Competition assays against ODLA were done with excess ADPH (100 μM) and varying ODLA from 2–0.25 μM. Reactions were started with addition of enzyme and inhibitor was varied from 30–0.01 μM. Kinetics were fit to Lineweaver-Burke (Eq. 1), competitive (Eq. 2), non-competitive (Eq. 3), mixed (Eq. 4), Dixon (Eq. 5), or Cornish-Bowden (Eq. 6) models. All fitting and plotting was done through MATLAB R2018A.1 1/V1/[S]=KM/Vmax[S]+1/Vmax 2 V[S]=Vmax[S]/KM1+[I]/Ki+[S] 3 V[S]=Vmax[S]/1+([I]/Ki)/KM+[S] 4 V[S]=Vmax[S]/KM(1+[I]/Ki)+[S](1+[I]/αKi) 5 1/V[I]=KM1+I/Ki+[S]1+I/αKi/Vmax[S] 6 [S]/V[I]=KM1+I/Ki+[S]1+I/αKi/Vmax

T1 sequence (P24173 whole entry K64A): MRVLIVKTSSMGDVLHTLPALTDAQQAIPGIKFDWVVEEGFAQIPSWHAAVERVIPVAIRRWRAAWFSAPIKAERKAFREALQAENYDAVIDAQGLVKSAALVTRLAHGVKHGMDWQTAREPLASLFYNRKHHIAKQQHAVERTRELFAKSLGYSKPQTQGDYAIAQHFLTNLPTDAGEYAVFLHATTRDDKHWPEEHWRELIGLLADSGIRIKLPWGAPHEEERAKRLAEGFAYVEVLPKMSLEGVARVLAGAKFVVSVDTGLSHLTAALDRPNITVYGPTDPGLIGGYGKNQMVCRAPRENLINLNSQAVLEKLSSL

[H]/N=C(/N)N[C@H]1[C@H](O)[C@@H](O)[C@H](O[C@@H]2O[C@@H](C)[C@](O)(C=O)[C@H]2O[C@@H]2O[C@@H](CO)[C@H](O)[C@@H](O)[C@@H]2NC)[C@@H](N/C(N)=N\[H])[C@@H]1O [Streptomycin]
Ki: 5.76 ± 0.485 µM
kcat (HepI K64A in presence of inhibitor): 0.117 ± 0.009 s⁻¹
Ki relative to WT (HepI K64A vs WT): increased the Ki values an order of magnitude
ΔΔG (kcal/mol) Exp (Lys64Ala relative to WT): 1.3 ± 0.1 kcal/mol
ΔG (kcal/mol) Exp (Lys64Ala, from Ki): -7.1 ± 0.1 kcal/mol
